Data taken from patent US10017580B2, “Humanized anti-Tn-MUC1 antibodies and their conjugates” (ADC THERAPEUTICS S.A., priority 2014, dated 2018).

How the values were obtained:
[1] = tested on: ZR-75-1 cell line, which expresses Tn-MUC1; assay: ZR-75-1 cell binding assay by flow cytometry (protocol 6); conditions: flow cytometry, live cells
Experimental: Protocol 6: ZR-75-1 Cell Binding Assay by Flow Cytometry Materials • Wash solution: PBS 0.1% (w/v) sodium azide • Binding buffer: PBS, 10% normal goat serum, 0.1% (w/v) sodium azide) • 96 well U-well microplate Protocol
Exponentially growing cells are suspended by incubation with cell dissociation buffer enzyme-free, Hanks-based (Gibco 13150-016) following the manufacturer's instructions. A cell count/viability is done on a dilution of 10 ul cells+Trypan Blue, 10 ul, with a haemocytomer. The suspension is centrifuged and the cell pellet re-suspended in binding buffer at 3×10^6 per ml. If significant levels of aggregates are present in the cell count, the suspension is filtered to remove aggregates. The cell suspension is dispensed (50 ul/well) in 96 well U-bottom plates and cooled on ice for 10 minutes. Primary antibody (50 ul/well) diluted in binding buffer (typically 1 ug per ml or less) is added to each well and incubated at 4° C. for 1 hour. […] Cells are then re-suspended in PBS if reading immediately or fixed in 100 ul of paraformaldehyde (2% (w/v) in PBS) and analysed with by flow cytometer (Accuri C6), gating on live cells which have a lower Fixable Viability Dye MFI compared to dead cells.
IgG binding potency to Tn-MUC1 was measured as per protocol 4 and binding to the ZR-75-1 cell line, which expresses Tn-MUC1, was measured as per protocol 6.

Tn-MUC1 (16TR-MUC1-Tn) = assay: Tn-MUC1 binding ELISA (protocol 4); design: species or system human; conditions: ELISA on 16TR-MUC1-Tn coated plate
[2] = Thermal denaturation assay (protocol 5); assay type: physicochemical; conditions: 50% inactivation temperature, 10 minutes heating, read by antigen-binding ELISA
[3] = tested on: K562 human chronic myeloid leukaemia cells; assay: K562 assay (MTT cytotoxicity of released compounds); assay type: cell-based; conditions: drug incubation 1 hour or 96 hours (not specified which)
Experimental: K562 human chronic myeloid leukaemia cells were maintained in RPM1 1640 medium supplemented with 10% fetal calf serum and 2 mM glutamine at 37° C. in a humidified atmosphere containing 5% CO2 and were incubated with a specified dose of drug for 1 hour or 96 hours at 37° C. in the dark. The incubation was terminated by centrifugation (5 min, 300 g) and the cells were washed once with drug-free medium. Following the appropriate drug treatment, the cells were transferred to 96-well microtiter plates (10^4 cells per well, 8 wells per sample). Plates were then kept in the dark at 37° C. in a humidified atmosphere containing 5% CO2. The assay is based on the ability of viable cells to reduce a yellow soluble tetrazolium salt, 3-(4,5-dimethylthiazol-2-yl)-2,5-diphenyl-2H-tetrazolium bromide (MTT, Aldrich-Sigma), to an insoluble purple formazan precipitate. Following incubation of the plates for 4 days (to allow control cells to increase in number by approximately 10 fold), 20 μL of MTT solution (5 mg/mL in phosphate-buffered saline) was added to each well and the plates further incubated for 5 h. The plates were then centrifuged for 5 min at 300 g and the bulk of the medium pipetted from the cell pellet leaving 10-20 μL per well. […] The optical density was then read at a wavelength of 550 nm on a Titertek Multiscan ELISA plate reader, and a dose-response curve was constructed. […]

Sequence of Tn-MUC1 (16TR-MUC1-Tn) (P15941 141-460 limits assumed): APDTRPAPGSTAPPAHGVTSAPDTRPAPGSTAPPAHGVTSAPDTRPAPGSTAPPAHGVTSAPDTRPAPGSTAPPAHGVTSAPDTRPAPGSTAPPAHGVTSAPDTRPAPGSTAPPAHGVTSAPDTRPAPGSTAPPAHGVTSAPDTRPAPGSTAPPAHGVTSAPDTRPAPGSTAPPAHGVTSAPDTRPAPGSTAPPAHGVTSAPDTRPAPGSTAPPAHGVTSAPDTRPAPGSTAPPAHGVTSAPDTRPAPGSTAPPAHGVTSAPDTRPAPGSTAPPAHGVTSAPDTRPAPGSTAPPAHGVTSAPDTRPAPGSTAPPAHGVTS

Molecule | ZR-75-1 cell binding EC50 [1] | Tn-MUC1 binding EC50 (Tn-MUC1 (16TR-MUC1-Tn)) | Tm [2] | IC50 [3]
Mouse 5E5: anti-Tn MUC 1 antibody comprising a VH domain according to SEQ ID NO. 1 and a VL domain according to SEQ ID NO. 30 [reference compound] | 0.02834 µg/mL | 0.0311 µg/mL | 69.97 °C | –
COc1cc2c(cc1OCCCOc1cc3c(cc1OC)C(=O)N1C=C(C)C[C@H]1C=N3)N=C[C@@H]1CC(C)=CN1C2=O [Compound RelE] | – | – | – | 0.425 nM
